In patent US20080200454A1, “CARBON-LINKED TETRAHYDRO-PYRAZOLO-PYRIDINE MODULATORS OF CATHEPSIN S” (priority 2007, published 2008):
pIC50: −log10 of the molar value. Where two headings read alike, the source gives them in different places.

Target: Recombinant human cathepsin S (CatS) (Homo sapiens, UniProt P25774)
Assay: Recombinant human cathepsin S (CatS) inhibition assay, fluorogenic substrate Z-Valine-Valine-Arginine-AMC;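 further: Baculovirus-expressed CatS in pH 5.0 sodium acetate buffer with DTT and NaCl, fluorescence read each minute over 20 min, inhibition derived from rate slope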
Protocol: Recombinant human cathepsin S (CatS) was expressed in the baculovirus system and purified in one step with a thiopropyl-sepharose column. 10-L yielded ˜700 mg of CatS and N-terminal sequencing confirmed identity. The assay is run in 150 mM sodium acetate pH 5.0 containing 1.5 mM DTT and 150 mM NaCl. […] Using 2 ng/well of CatS, the production of product is linear and yields-7-fold signal after 20 min with only 20% loss of substrate. Measurements are taken every min for 20 min. The rate is calculated from the slope of the increase in fluorescence and the percent inhibition is calculated from this.

Sequence of Recombinant human cathepsin S (CatS) (P25774 115-331): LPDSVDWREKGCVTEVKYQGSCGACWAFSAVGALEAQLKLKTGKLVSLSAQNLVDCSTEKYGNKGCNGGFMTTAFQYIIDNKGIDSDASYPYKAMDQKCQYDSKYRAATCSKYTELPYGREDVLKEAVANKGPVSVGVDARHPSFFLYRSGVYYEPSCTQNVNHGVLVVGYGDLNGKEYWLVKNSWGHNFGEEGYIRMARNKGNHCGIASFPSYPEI

| pIC50 | Compound | pIC50 (CatS IC50) |
| --- | --- | --- |
| 4.81 | CS(=O)(=O)N1CCc2c(c(-c3cccc(CCc4cccc(O)c4)c3)nn2CCCN2CCOCC2)C1 [Example 296, 3-(2-{3-[5-(Methylsulfonyl)-1-(3-morpholin-4-ylpropyl)-4,5,6,7-tetrahydro-1H-pyrazolo[4,3-c]pyridin-3-yl]phenyl}ethyl)phenol] | – |
| 5.80 | Clc1ccc(C#Cc2cc(-c3nn(CCCN4CCOCC4)c4c3CNCC4)ccc2Cl)cc1 [Example 297, 3-{4-Chloro-3-[(4-chlorophenyl)ethynyl]phenyl}-1-(3-morpholin-4-ylpropyl)-4,5,6,7-tetrahydro-1H-pyrazolo[4,3-c]pyridine] | – |
| 7.30 | CS(=O)(=O)N1CCc2c(c(-c3ccc(Cl)c(C#Cc4ccc(Cl)cc4)c3)nn2CC(O)CN2CCC3(CCNC3=O)CC2)C1 (stereo not shown) [Example 298, 8-{3-[3-{4-Chloro-3-[(4-chlorophenyl)ethynyl]phenyl}-5-(methylsulfonyl)-4,5,6,7-tetrahydro-1H-pyrazolo[4,3-c]pyridin-1-yl]-2-hydroxypropyl}-2,8-diazaspiro[4.5]decan-1-one] | – |
| 5.04 | CS(=O)(=O)N1CCc2c(c(-c3ccc(Cl)c(CCCCO)c3)nn2CCCN2CCOCC2)C1 [Example 300, 4-{2-Chloro-5-[5-(methylsulfonyl)-1-(3-morpholin-4-ylpropyl)-4,5,6,7-tetrahydro-1H-pyrazolo[4,3-c]pyridin-3-yl]phenyl}butan-1-ol] | – |
| 5.15 | CS(=O)(=O)N1CCc2c(c(-c3ccc(Cl)c(CCCCCO)c3)nn2CCCN2CCOCC2)C1 [Example 301, 5-{2-Chloro-5-[5-(methylsulfonyl)-1-(3-morpholin-4-ylpropyl)-4,5,6,7-tetrahydro-1H-pyrazolo[4,3-c]pyridin-3-yl]phenyl}pentan-1-ol] | – |
| 4.94 | CS(=O)(=O)N1CCc2c(c(-c3ccc(Cl)c(CCCO)c3)nn2CCCN2CCOCC2)C1 [Example 302, 3-{2-Chloro-5-[5-(methylsulfonyl)-1-(3-morpholin-4-ylpropyl)-4,5,6,7-tetrahydro-1H-pyrazolo[4,3-c]pyridin-3-yl]phenyl}propan-1-ol] | – |
| < 4.70 | CS(=O)(=O)N1CCc2c(c(-c3ccc(Cl)c(C#CCN)c3)nn2CCCN2CCOCC2)C1 [Example 303, 3-{2-Chloro-5-[5-(methylsulfonyl)-1-(3-morpholin-4-ylpropyl)-4,5,6,7-tetrahydro-1H-pyrazolo[4,3-c]pyridin-3-yl]phenyl}prop-2-yn-1-amine] | – |
| 4.77 | CS(=O)(=O)N1CCc2c(c(-c3ccc(Cl)c(CCCN)c3)nn2CCCN2CCOCC2)C1 [Example 304, 3-{2-Chloro-5-[5-(methylsulfonyl)-1-(3-morpholin-4-ylpropyl)-4,5,6,7-tetrahydro-1H-pyrazolo[4,3-c]pyridin-3-yl]phenyl}propan-1-amine] | – |
| 5.40 | CS(=O)(=O)N1CCc2c(c(-c3ccc(C(F)(F)F)c(C#CCNS(=O)(=O)c4ccccc4)c3)nn2CC(O)CN2CCOCC2)C1 (stereo not shown) [Example 305, N-(3-{5-[1-(2-Hydroxy-3-morpholin-4-ylpropyl)-5-(methylsulfonyl)-4,5,6,7-tetrahydro-1H-pyrazolo[4,3-c]pyridin-3-yl]-2-(trifluoromethyl)phenyl}prop-2-yn-1-yl)benzenesulfonamide] | – |
| 5.49 | CS(=O)(=O)N1CCc2c(c(-c3ccc(C(F)(F)F)c(CCCNS(=O)(=O)c4ccccc4)c3)nn2CC(O)CN2CCOCC2)C1 (stereo not shown) [Example 306, N-(3-{5-[1-(2-Hydroxy-3-morpholin-4-ylpropyl)-5-(methylsulfonyl)-4,5,6,7-tetrahydro-1H-pyrazolo[4,3-c]pyridin-3-yl]-2-(trifluoromethyl)phenyl}propyl)benzenesulfonamide] | – |
| 5.33 | CS(=O)(=O)N1CCc2c(c(-c3ccc(Cl)c(C#CCN)c3)nn2CCCN2CCC(N3CCCC3=O)CC2)C1 [Example 307, 1-[1-(3-{3-[3-(3-Aminoprop-1-yn-1-yl)-4-chlorophenyl]-5-(methylsulfonyl)-4,5,6,7-tetrahydro-1H-pyrazolo[4,3-c]pyridin-1-yl}propyl)piperidin-4-yl]pyrrolidin-2-one] | – |
| 5.25 | CS(=O)(=O)N1CCc2c(c(-c3ccc(Cl)c(CCCN)c3)nn2CCCN2CCC(N3CCCC3=O)CC2)C1 [Example 308, 1-[1-(3-{3-[3-(3-Aminopropyl)-4-chlorophenyl]-5-(methylsulfonyl)-4,5,6,7-tetrahydro-1H-pyrazolo[4,3-c]pyridin-1-yl}propyl)piperidin-4-yl]pyrrolidin-2-one] | – |
| 6.49 | COC(=O)c1ccccc1S(=O)(=O)NCCCc1cc(-c2nn(CCCN3CCC(N4CCCC4=O)CC3)c3c2CN(S(C)(=O)=O)CC3)ccc1Cl [Example 309, Methyl 2-{[(3-{2-chloro-5-[5-(methylsulfonyl)-1-{3-[4-(2-oxopyrrolidin-1-yl)piperidin-1-yl]propyl}-4,5,6,7-tetrahydro-1H-pyrazolo[4,3-c]pyridin-3-yl]phenyl}propyl)amino]sulfonyl}benzoate] | – |
| 5.67 | CS(=O)(=O)N1CCc2c(c(-c3ccc(Cl)c(C#CCO)c3)nn2CCCN2CCC(N3CCCC3=O)CC2)C1 [Example 310, 1-[1-(3-{3-[4-Chloro-3-(3-hydroxyprop-1-yn-1-yl)phenyl]-5-(methylsulfonyl)-4,5,6,7-tetrahydro-1H-pyrazolo[4,3-c]pyridin-1-yl}propyl)piperidin-4-yl]pyrrolidin-2-one] | – |
| 5.87 | CS(=O)(=O)N1CCc2c(c(-c3ccc(Cl)c(CCCCO)c3)nn2CCCN2CCC(N3CCCC3=O)CC2)C1 [Example 311, 1-[1-(3-{3-[4-Chloro-3-(4-hydroxybutyl)phenyl]-5-(methylsulfonyl)-4,5,6,7-tetrahydro-1H-pyrazolo[4,3-c]pyridin-1-yl}propyl)piperidin-4-yl]pyrrolidin-2-one] | – |

Second part, the compound before the results:

| Compound | pIC50 | pIC50 (CatS IC50) |
| --- | --- | --- |
| CS(=O)(=O)N1CCc2c(c(-c3ccc(Cl)c(C#Cc4ccc(Cl)c(CNCc5ccccc5)c4)c3)nn2CCCN2CCOCC2)C1 [Example 287, 1-[2-Chloro-5-({2-chloro-5-[5-(methylsulfonyl)-1-(3-morpholin-4-ylpropyl)-4,5,6,7-tetrahydro-1H-pyrazolo[4,3-c]pyridin-3-yl]phenyl}ethynyl)phenyl]-N-(phenylmethyl)methanamine] | – | 7.30 |
| CS(=O)(=O)N1CCc2c(c(-c3ccc(Cl)c(CCc4ccc(Cl)c(CNCc5ccccc5)c4)c3)nn2CCCN2CCOCC2)C1 [Example 288, 1-[2-Chloro-5-(2-{2-chloro-5-[5-(methylsulfonyl)-1-(3-morpholin-4-ylpropyl)-4,5,6,7-tetrahydro-1H-pyrazolo[4,3-c]pyridin-3-yl]phenyl}ethyl)phenyl]-N-(phenylmethyl)methanamine] | 6.92 | – |
| C[C@H]1COCCN1CCCn1nc(-c2ccc(Cl)c(C#Cc3ccc(Cl)c(CNCc4ccccn4)c3)c2)c2c1CCN(C(=O)C(N)=O)C2 [Example 289, 2-(3-{4-Chloro-3-[(4-chloro-3-{[(pyridin-2-ylmethyl)amino]methyl}phenyl)ethynyl]phenyl}-1-{3-[(3S)-3-methylmorpholin-4-yl]propyl}-1,4,6,7-tetrahydro-5H-pyrazolo[4,3-c]pyridin-5-yl)-2-oxoacetamide] | – | 8.00 |
| CS(=O)(=O)N1CCc2c(c(-c3ccc(Cl)c(C#Cc4ccc(F)c(CNCc5ccccc5)c4)c3)nn2CCCN2CCOCC2)C1 [Example 290, 1-[5-({2-Chloro-5-[5-(methylsulfonyl)-1-(3-morpholin-4-ylpropyl)-4,5,6,7-tetrahydro-1H-pyrazolo[4,3-c]pyridin-3-yl]phenyl}ethynyl)-2-fluorophenyl]-N-(phenylmethyl)methanamine] | – | 6.68 |
| NC(=O)N1CCc2c(c(-c3ccc(Cl)c(C#Cc4ccc(Cl)c(CNCc5ccccc5)c4)c3)nn2CCCN2CCSCC2)C1 [Example 291, 3-{4-Chloro-3-[(4-chloro-3-{[(phenylmethyl)amino]methyl}phenyl)ethynyl]phenyl}-1-(3-thiomorpholin-4-ylpropyl)-1,4,6,7-tetrahydro-5H-pyrazolo[4,3-c]pyridine-5-carboxamide] | 7.52 | – |
| NC(=O)N1CCc2c(c(-c3ccc(Cl)c(C#Cc4ccc(Cl)c(CNCc5ccccn5)c4)c3)nn2CCCN2CCSCC2)C1 [Example 292, 3-{4-Chloro-3-[(4-chloro-3-{[(pyridin-2-ylmethyl)amino]methyl}phenyl)ethynyl]phenyl}-1-(3-thiomorpholin-4-ylpropyl)-1,4,6,7-tetrahydro-5H-pyrazolo[4,3-c]pyridine-5-carboxamide] | – | 7.70 |
| C[C@H]1COCCN1CCCn1nc(-c2ccc(Cl)c(C#Cc3ccc(Cl)c(CNCCO)c3)c2)c2c1CCN(S(C)(=O)=O)C2 [Example 293, 2-({[2-Chloro-5-({2-chloro-5-[1-{3-[(3S)-3-methylmorpholin-4-yl]propyl}-5-(methylsulfonyl)-4,5,6,7-tetrahydro-1H-pyrazolo[4,3-c]pyridin-3-yl]phenyl}ethynyl)phenyl]methyl}amino)ethanol] | – | 7.30 |
| COC(=O)CNCc1cc(C#Cc2cc(-c3nn(CCCN4CCOC[C@@H]4C)c4c3CN(C(=O)C(N)=O)CC4)ccc2Cl)ccc1Cl [Example 294, Methyl N-[(5-{[5-(5-[amino(oxo)acetyl]-1-{3-[(3S)-3-methylmorpholin-4-yl]propyl}-4,5,6,7-tetrahydro-1H-pyrazolo[4,3-c]pyridin-3-yl)-2-chlorophenyl]ethynyl}-2-chlorophenyl)methyl]glycinate] | 7.70 | – |
| C[C@H]1COCCN1CCCn1nc(-c2ccc(Cl)c(C#Cc3ccc(Cl)c(CNCCO)c3)c2)c2c1CCN(C(=O)C(N)=O)C2 [Example 295, 2-(3-{4-Chloro-3-[(4-chloro-3-{[(2-hydroxyethyl)amino]methyl}phenyl)ethynyl]phenyl}-1-{3-[(3S)-3-methylmorpholin-4-yl]propyl}-1,4,6,7-tetrahydro-5H-pyrazolo[4,3-c]pyridin-5-yl)-2-oxoacetamide] | 7.52 | – |
| CS(=O)(=O)N1CCc2c(c(-c3ccc(Cl)c(C#CCCO)c3)nn2CCCN2CCOCC2)C1 [Example 299, 4-{2-Chloro-5-[5-(methylsulfonyl)-1-(3-morpholin-4-ylpropyl)-4,5,6,7-tetrahydro-1H-pyrazolo[4,3-c]pyridin-3-yl]phenyl}but-3-yn-1-ol] | 5.32 | – |
